# According to PubChem BioAssay AID248 (DTP/NCI, 2004):
# Where “and” joins values, the source holds several entries; their conditions need not be identical. Equal entries are not always repeated. Inconclusive results and toxic doses are left out.
# Tested on: L1210 leukemia ip in BDF1 mice, survival T/C
# Assay: NCI In Vivo Anticancer Drug Screen. Data for tumor model L1210 Leukemia (intraperitoneal) in B6D2F1 (BDF1) mice
# Settings: endpoint: mean survival time, higher = longer survival
# In short: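 Survival endpoint. Drug-treated group vs vehicle group, expressed as T divided by C. Tumor passaged by transplantation.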
# [1] = dose: 100.0 mg/kg/injection, schedule: Q04DX003 (ip), vehicle: saline
# [2] = dose: 200.0 mg/kg/injection, schedule: Q04DX003 (ip), vehicle: saline
# [3] = dose: 400.0 mg/kg/injection, schedule: Q04DX003 (ip), vehicle: saline
# [4] = dose: 100.0 mg/kg/injection, schedule: Q04DX003 (ip), vehicle: Klucel (hydroxypropylcellulose) (HPC)
# [5] = dose: 200.0 mg/kg/injection, schedule: Q04DX003 (ip), vehicle: Klucel (hydroxypropylcellulose) (HPC)
# [6] = dose: 400.0 mg/kg/injection, schedule: Q04DX003 (ip), vehicle: Klucel (hydroxypropylcellulose) (HPC)
# [7] = dose: 50.0 mg/kg/injection, schedule: Q04DX002 (ip), vehicle: saline with Tween-80
# [8] = dose: 100.0 mg/kg/injection, schedule: Q04DX002 (ip), vehicle: saline with Tween-80
# [9] = dose: 200.0 mg/kg/injection, schedule: Q04DX002 (ip), vehicle: saline with Tween-80
structure (smiles),measurement,setting,value
C1CC(=NN=C2CCSCC2)CCS1,T/C,[1],96 % of control
same,T/C,[2],94 % of control
same,T/C,[3],123 % of control
CC(C)CCOP(=S)(N1CC1)N1CC1,T/C,"dose: 2.0 mg/kg/injection, schedule: Q01DX015 (ip), vehicle: carboxymethylcellulose (CMC)",101 % of control
same,T/C,"dose: 4.0 mg/kg/injection, schedule: Q01DX015 (ip), vehicle: carboxymethylcellulose (CMC)",103 % of control
same,T/C,"dose: 44.4 mg/kg/injection, schedule: Q01DX001 (ip), vehicle: carboxymethylcellulose (CMC)",117 % of control
same,T/C,"dose: 100.0 mg/kg/injection, schedule: Q01DX001 (ip), vehicle: carboxymethylcellulose (CMC)",164 % of control
O=C(O)C1(c2ccccc2)OC1c1ccccc1 (stereo not drawn),T/C,"dose: 100.0 mg/kg/injection, schedule: Q01DX001 (ip), vehicle: Klucel (hydroxypropylcellulose) (HPC)",93 % of control
same,T/C,[4],95 % of control
same,T/C,"dose: 100.0 mg/kg/injection, schedule: Q04DX003 (ip), vehicle: saline with Tween-80",90 % of control
same,T/C,"dose: 200.0 mg/kg/injection, schedule: Q01DX001 (ip), vehicle: Klucel (hydroxypropylcellulose) (HPC)",91 % of control
same,T/C,[5],95 % of control
same,T/C,"dose: 200.0 mg/kg/injection, schedule: Q04DX003 (ip), vehicle: saline with Tween-80",86 % of control
same,T/C,"dose: 400.0 mg/kg/injection, schedule: Q01DX001 (ip), vehicle: Klucel (hydroxypropylcellulose) (HPC)",93 % of control
same,T/C,[6],86 % of control
same,T/C,"dose: 400.0 mg/kg/injection, schedule: Q04DX003 (ip), vehicle: saline with Tween-80",92 % of control
O=C1C=CC(c2ccccc2)(c2ccccc2)C=C1,T/C,"dose: 25.0 mg/kg/injection, schedule: Q04DX002 (ip), vehicle: saline with Tween-80",93 % of control
same,T/C,[7],101 % of control
same,T/C,[8],96 % of control
CCCCCCCCCCCCCCCC[n+]1ccccc1,T/C,"dose: 0.12 mg/kg/injection, schedule: Q01DX Z (ip), vehicle: water",101 % of control
same,T/C,"dose: 0.25 mg/kg/injection, schedule: Q01DX Z (ip), vehicle: water",101 % of control
same,T/C,"dose: 0.5 mg/kg/injection, schedule: Q01DX Z (ip), vehicle: water",108 % of control
same,T/C,"dose: 1.0 mg/kg/injection, schedule: Q01DX Z (ip), vehicle: water",103 % of control
O=C1CCC(OC(=O)c2ccccc2)CC1,T/C,"dose: 100.0 mg/kg/injection, schedule: Q01DX009 (ip), vehicle: Klucel (hydroxypropylcellulose) (HPC)",97 % of control
same,T/C,[4],101 % of control
same,T/C,"dose: 200.0 mg/kg/injection, schedule: Q01DX009 (ip), vehicle: Klucel (hydroxypropylcellulose) (HPC)",95 % of control
same,T/C,[5],101 % of control
same,T/C,"dose: 400.0 mg/kg/injection, schedule: Q01DX009 (ip), vehicle: Klucel (hydroxypropylcellulose) (HPC)",100 % of control
same,T/C,[6],90 % of control
Cc1c(C(C)c2[nH]c3ccccc3c2C)[nH]c2ccccc12,T/C,"dose: 50.0 mg/kg/injection, schedule: Q01DX001 (ip), vehicle: other",98 % of control
same,T/C,"dose: 100.0 mg/kg/injection, schedule: Q01DX001 (ip), vehicle: other",102 % of control
same,T/C,"dose: 200.0 mg/kg/injection, schedule: Q01DX001 (ip), vehicle: other",91 % of control
same,T/C,"dose: 400.0 mg/kg/injection, schedule: Q01DX001 (ip), vehicle: other",93 % of control
OC(c1ccc(Br)cc1)C(O)c1ccc(Br)cc1 (stereo not drawn),T/C,[7],104 % of control
same,T/C,[8],104 % of control
same,T/C,[9],97 % of control
O=C(O)COc1cc(F)ccc1[N+](=O)[O-],T/C,"dose: 100.0 mg/kg/injection, schedule: Q04DX002 (ip), vehicle: Klucel (hydroxypropylcellulose) (HPC)",91 % of control
same,T/C,"dose: 200.0 mg/kg/injection, schedule: Q04DX002 (ip), vehicle: Klucel (hydroxypropylcellulose) (HPC)",102 % of control
same,T/C,"dose: 400.0 mg/kg/injection, schedule: Q04DX002 (ip), vehicle: Klucel (hydroxypropylcellulose) (HPC)",107 % of control
COc1cc(CCCc2cccc(O)c(=O)c2)cc(OC)c1OC,T/C,[8],91 % of control and 103 % of control
same,T/C,[9],105 % of control and 89 % of control
same,T/C,"dose: 400.0 mg/kg/injection, schedule: Q04DX002 (ip), vehicle: saline with Tween-80",108 % of control and 116 % of control
CC1COCC(C)OCO1 (stereo not drawn),T/C,"dose: 50.0 mg/kg/injection, schedule: Q01DX009 (ip), vehicle: acetone",102 % of control
same,T/C,"dose: 100.0 mg/kg/injection, schedule: Q01DX009 (ip), vehicle: acetone",102 % of control
same,T/C,"dose: 100.0 mg/kg/injection, schedule: Q04DX003 (ip), vehicle: acetone",103 % of control
same,T/C,"dose: 200.0 mg/kg/injection, schedule: Q01DX009 (ip), vehicle: acetone",101 % of control
same,T/C,"dose: 200.0 mg/kg/injection, schedule: Q04DX003 (ip), vehicle: acetone",94 % of control
same,T/C,"dose: 400.0 mg/kg/injection, schedule: Q04DX003 (ip), vehicle: acetone",114 % of control
CCCCNC(C)(C)C(S)c1ccc(Cl)cc1 (stereo not drawn),T/C,"dose: 12.0 mg/kg/injection, schedule: Q01DX009 (ip), vehicle: Klucel (hydroxypropylcellulose) (HPC)",104 % of control
same,T/C,"dose: 25.0 mg/kg/injection, schedule: Q01DX009 (ip), vehicle: Klucel (hydroxypropylcellulose) (HPC)",108 % of control
CN(C)CCOc1ncnc2nc[nH]c12,T/C,[1],101 % of control
same,T/C,[2],102 % of control
same,T/C,[3],96 % of control
